# Test results as given in patent publication US5733896A, “N-(3-fluoro-2-phosphonylmethoxypropyl) derivatives of purine and pyrimidine heterocyclic bases, their preparation and use” (priority 1990, dated 1998).
# Read-outs that look alike come from different tables or passages of the source.
# What was measured:
# HIV-1 = experiment: Effect on multiplication of HIV-1 in tissue cultures of MT-4 cells (suppression of cytopathogenic effect); assay type: cell-based
# Text: (§1) Effect of compounds of the general formula I on multi-
# (§2) plication of HIV-1 in tissue cultures of MT-4 cells
# ^a Dose, suppressing by 50% the cytopatogenic effect of HIV1 in MT4
# [1] = Cytotoxicity: dose decreasing the viability of MT4 cells to one half; assay type: cell-based; conditions: human, mt-4 cells
# Text: as §1, §2
# ^b dose, decreasing the viability of MT4 cells to one half;
# MSV-induced tumor = experiment: Effect on the evolution of an MSV-induced tumor in newborn NMRI mice; assay type: in vivo
# Text: Effect of compounds of the general formula I on the evolution
# of an MSV-induced tumor in newborn NMRI mice
# [2] = test system: retroviruses, such as HIV; conditions: cited from earlier work
# HIV = conditions: cited from earlier work
# Moloney sarcoma virus = conditions: experimental animals; cited from earlier work
# murine leukemia virus = conditions: experimental animals; cited from earlier work
# [3] = test system: simian immunodefficiency virus (SIV); conditions: experimental animals; cited from earlier work
# [4] = Human immunodeficiency virus 1, MT4, HIV-1, MT-4 cells, read-out: ED50 (dose, suppressing by 50% the cytopatogenic effect of HIV1 in MT4 cells)
# [5] = read-out: CD50 (dose, decreasing the viability of MT4 cells to one half)
compound,measurement,setting,value
"Nc1ncnc2c1ncn2CC(CF)OCP(=O)(O)O (racemic) [Compound 1, 9-(RS)-(3-fluoro-2-phosphonylmethoxypropyl)-adenine]",SI (ratio CD50/ED50),"HIV-1; HIV-1, MT-4 cells",> 90
same,EC50,HIV-1; [4],11.2 µg/mL
same,CC50,[1]; [5],> 1000 µg/mL
same,Median day of tumor formation,MSV-induced tumor; dose 1 mg/kg/day,5.8
same,Median survival time,MSV-induced tumor; dose 1 mg/kg/day,10.9 days
same,Median day of tumor formation,MSV-induced tumor; dose 5 mg/kg/day,7.5
same,Median survival time,MSV-induced tumor; dose 5 mg/kg/day,14.4 days
same,Median day of tumor formation,MSV-induced tumor; dose 20 mg/kg/day,> 13
Nc1nc2c(ncn2CC(CF)OCP(=O)(O)O)c(=O)[nH]1 (racemic) [Compound 2],SI (ratio CD50/ED50),"HIV-1; HIV-1, MT-4 cells",50
same,EC50,HIV-1; [4],4.7 µg/mL
same,CC50,[1]; [5],233 µg/mL
same,Median day of tumor formation,MSV-induced tumor; dose 1 mg/kg/day,5.2
same,Median survival time,MSV-induced tumor; dose 1 mg/kg/day,11.7 days
same,Median day of tumor formation,MSV-induced tumor; dose 5 mg/kg/day,8.5
same,Median survival time,MSV-induced tumor; dose 5 mg/kg/day,12.5 days
same,Median day of tumor formation,MSV-induced tumor; dose 20 mg/kg/day,> 13
same,Median survival time,MSV-induced tumor; dose 20 mg/kg/day,10 days
"Cc1cn([C@H]2C=C[C@@H](CO)O2)c(=O)[nH]c1=O [2',3'-dideoxy-2',3'-didehydrothymidine]",efficiency in the treatment of experimental animals,[2],efficient in the treatment of experimental animals
"Nc1ccn([C@H]2CC[C@@H](CO)O2)c(=O)n1 [2',3'-dideoxycytidine]",efficiency in the treatment of experimental animals,[2],efficient in the treatment of experimental animals
Cc1cc(-c2ccc(/N=N/c3ccc4c(S(=O)(=O)O)cc(S(=O)(=O)O)c(N)c4c3O)c(C)c2)ccc1/N=N/c1ccc2c(S(=O)(=O)O)cc(S(=O)(=O)O)c(N)c2c1O [Evans Blue],effect on HIV in tissue cultures,HIV,significant effects in tissue cultures
"Nc1ncnc2c1ncn2CCOCP(=O)(O)O [IX, reference compound]",SI (ratio CD50/ED50),"HIV-1; HIV-1, MT-4 cells",7.2
same,EC50,"HIV-1; Human immunodeficiency virus 1, MT4, read-out: ED50 (dose, suppressing by 50% the cytopatogenic effect of HIV1 in MT4 cells)",2 µg/mL
same,CC50,[1],14.2 µg/mL
same,Median day of tumor formation,MSV-induced tumor; dose 1 mg/kg/day,6.1
same,Median survival time,MSV-induced tumor; dose 1 mg/kg/day,14.7 days
same,Median day of tumor formation,MSV-induced tumor; dose 5 mg/kg/day,10.1
same,Median survival time,MSV-induced tumor; dose 5 mg/kg/day,17.2 days
same,Median day of tumor formation,MSV-induced tumor; dose 20 mg/kg/day,> 13
same,effect on Moloney sarcoma virus,Moloney sarcoma virus,have proven its effect
same,effect on murine leukemia virus,murine leukemia virus,have proven its effect
same,effect on simian immunodefficiency virus (SIV),[3],have proven its effect
same,effect on HIV in tissue cultures,HIV,have proven its effect
O=C(O)C1=CC(=C(c2ccc(O)c(C(=O)O)c2)c2ccc(O)c(C(=O)O)c2)C=CC1=O [aurine-tricarboxylic acid],effect on HIV in tissue cultures,HIV,significant effects in tissue cultures
